In US10407381B2 (THE BOARD OF TRUSTEES OF THE UNIVERSITY OF ILLINOIS, priority 2015, dated 2019):
Where two headings read alike, the source gives them in different places.

Experiments:
[1] = target: T1, human 5-HT2C-INI (Homo sapiens, UniProt P28335); assay: Calcium flux (FLIPR) assay, human 5-HT2C-INI stably expressed in HEK-293 (Flp-In-293) cells; conditions: human 5-HT2C-INI in HEK-293 cells, FLIPR; for EC50: NA = no activity at 10 μM; for Emax, % 5-HT 5-HT2C: normalized to 5-HT
T1 sequence (P28335 33-458): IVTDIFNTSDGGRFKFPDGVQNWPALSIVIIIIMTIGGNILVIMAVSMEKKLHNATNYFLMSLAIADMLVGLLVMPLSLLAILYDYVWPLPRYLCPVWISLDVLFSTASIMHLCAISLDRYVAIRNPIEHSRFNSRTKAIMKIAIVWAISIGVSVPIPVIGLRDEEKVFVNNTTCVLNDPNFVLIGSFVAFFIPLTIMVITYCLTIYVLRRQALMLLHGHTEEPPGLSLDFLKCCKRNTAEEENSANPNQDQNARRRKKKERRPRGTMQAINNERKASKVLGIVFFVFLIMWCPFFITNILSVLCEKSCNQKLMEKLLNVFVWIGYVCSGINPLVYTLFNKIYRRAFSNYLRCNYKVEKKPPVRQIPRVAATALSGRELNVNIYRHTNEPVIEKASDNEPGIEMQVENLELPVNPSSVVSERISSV

[2] = target: 5-HT2A (Homo sapiens, UniProt P28223); assay: Calcium flux (FLIPR) assay, human 5-HT2A stably expressed in HEK-293 (Flp-In-293) cells; conditions: for Emax, % 5-HT 5-HT2A: normalized to 5-HT
[3] = target: 5-HT2B (Homo sapiens, UniProt P41595); assay: Calcium flux (FLIPR) assay, human 5-HT2B stably expressed in HEK-293 (Flp-In-293) cells; conditions: for Emax, % 5-HT 5-HT2B: normalized to 5-HT
[4] = human 5-HT2A in HEK-293 cells, FLIPR
[5] = EC50, nM 5-HT2B, human 5-HT2B in HEK-293 cells, NA = no activity at 10 μM
[6] = read-out: EC50, nM 5-HT2A, human 5-HT2A in HEK-293 cells, FLIPR, NA = no activity at 10 μM
[7] = EC50, nM 5-HT2A, human 5-HT2A in HEK-293 cells, FLIPR, NA = no activity at 10 μM
[8] = read-out: EC50, nM 5-HT2B, human 5-HT2B in HEK-293 cells, NA = no activity at 10 μM

Chain of 5-HT2A (P28223 whole entry): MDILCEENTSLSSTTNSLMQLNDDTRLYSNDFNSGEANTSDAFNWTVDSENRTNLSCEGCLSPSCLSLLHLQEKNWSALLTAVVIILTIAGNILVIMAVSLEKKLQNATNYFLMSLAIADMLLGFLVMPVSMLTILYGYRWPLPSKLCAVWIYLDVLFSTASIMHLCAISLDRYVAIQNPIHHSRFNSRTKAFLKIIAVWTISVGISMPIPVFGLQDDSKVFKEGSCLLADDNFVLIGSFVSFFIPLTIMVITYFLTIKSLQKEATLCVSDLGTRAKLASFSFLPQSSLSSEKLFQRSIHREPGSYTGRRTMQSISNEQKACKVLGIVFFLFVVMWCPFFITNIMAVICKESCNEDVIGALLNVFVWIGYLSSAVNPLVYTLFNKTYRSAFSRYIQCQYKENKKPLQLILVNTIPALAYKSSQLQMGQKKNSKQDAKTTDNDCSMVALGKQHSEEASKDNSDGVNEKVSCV
Chain of 5-HT2B (P41595 whole entry): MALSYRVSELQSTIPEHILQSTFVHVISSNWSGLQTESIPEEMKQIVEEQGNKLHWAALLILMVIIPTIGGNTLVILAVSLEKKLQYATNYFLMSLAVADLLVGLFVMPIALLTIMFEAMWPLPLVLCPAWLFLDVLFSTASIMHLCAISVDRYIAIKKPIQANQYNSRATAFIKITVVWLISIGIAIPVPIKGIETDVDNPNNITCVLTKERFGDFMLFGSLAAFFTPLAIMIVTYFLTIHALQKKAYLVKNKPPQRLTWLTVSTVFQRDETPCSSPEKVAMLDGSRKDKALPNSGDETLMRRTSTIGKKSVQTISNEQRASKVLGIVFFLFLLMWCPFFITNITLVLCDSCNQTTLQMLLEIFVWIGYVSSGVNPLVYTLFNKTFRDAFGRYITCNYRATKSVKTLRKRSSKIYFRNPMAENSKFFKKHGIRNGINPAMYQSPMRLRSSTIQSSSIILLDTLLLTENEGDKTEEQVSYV

| SMILES | EC50 ([1]; EC50, nM 5-HT2C) [nM] | Emax, % 5-HT 5-HT2C [1] | EC50 [2] [nM] | Emax, % 5-HT 5-HT2A [2, 4] | EC50 [3, 5] [nM] | Emax, % 5-HT 5-HT2B ([3]; human 5-HT2B in HEK-293 cells) | EC50 [2, 6] [nM] | EC50 [2, 7] [nM] | EC50 ([2]; EC50, nM 5-HT2A) [nM] | EC50 ([1]; read-out: EC50, nM 5-HT2C) [nM] | EC50 [3, 8] [nM] |
| --- | --- | --- | --- | --- | --- | --- | --- | --- | --- | --- | --- |
| NCC1CC1c1c(OCCF)ccc(Cl)c1Cl (single isomer, unassigned; (+)) [(+)-Example 38, (+)-(2-(2,3-Dichloro-6-(2-fluoroethoxy)phenyl)cyclopropyl)methanamine] | 232 | (90%) % 5-HT | 949 | (22%) % 5-HT | 5520 | (99%) % 5-HT | – | – | – | – | – |
| COc1cc(F)c(F)cc1C1CC1CN (single isomer, unassigned; (+)) [(+)-Example 40, (+)-(2-(4,5-Difluoro-2-methoxyphenyl)cyclopropyl)methanamine] | – | (108%) % 5-HT | – | – | – | (69%) % 5-HT | 81 | – | – | – | – |
| CCOc1cc(F)c(F)cc1C1CC1CN (single isomer, unassigned; (+)) [(+)-Example 41, (+)-(2-(2-Ethoxy-4,5-difluorophenyl)cyclopropyl)methanamine] | 2.9 | (105%) % 5-HT | – | (69%) % 5-HT | 55 | (59%) % 5-HT | – | 260 | – | – | – |
| CCCOc1cc(F)c(F)cc1C1CC1CN (single isomer, unassigned; (+)) [(+)-Example 43, (+)-(2-(4,5-Difluoro-2-propoxyphenyl)cyclopropyl)methanamine] | 26 | (93%) % 5-HT | – | (23%) % 5-HT | 2540 | (24%) % 5-HT | – | – | 805 | – | – |
| CCOc1ccc(F)c(F)c1C1CC1CN (single isomer, unassigned; (+)) [(+)-Example 46, (+)-(2-(6-Ethoxy-2,3-difluorophenyl)cyclopropyl)methanamine] | 7.2 | (107%) % 5-HT | – | (57%) % 5-HT | 288 | (48%) % 5-HT | – | 1160 | – | – | – |
| CCCOc1ccc(F)c(F)c1C1CC1CN (single isomer, unassigned; (+)) [(+)-Example 48, (+)-(2-(2,3-Difluoro-6-propoxyphenyl)cyclopropyl)methanamine] | 47 | (90%) % 5-HT | – | (18%) % 5-HT | 4220 | (39%) % 5-HT | – | 2070 | – | – | – |
| COc1ccc(F)c(Cl)c1C1CC1CN (single isomer, unassigned; (+)) [(+)-Example 50, (+)-(2-(2-Chloro-3-fluoro-6-methoxyphenyl)cyclopropyl)methanamine] | – | (88%) % 5-HT | – | (77%) % 5-HT | – | (60%) % 5-HT | 769 | – | – | 24 | – |
| CCOc1ccc(F)c(Cl)c1C1CC1CN (single isomer, unassigned; (+)) [(+)-Example 51, (+)-(2-(2-Chloro-6-ethoxy-3-fluorophenyl)cyclopropyl)methanamine] | 22 | (15%) % 5-HT | – | (47%) % 5-HT | 760 | (56%) % 5-HT | – | 761 | – | – | – |
| NCC1CC1c1cc(Cl)ccc1OCC(F)F (single isomer, unassigned; (-)) [(−)-Example 21, (−)-(2-(5-Chloro-2-(2,2-difluoroethoxy)phenyl)cyclopropyl)methanamine] | 914 | (64%) % 5-HT | – | (43%) % 5-HT | 1480 | (30%) % 5-HT | – | 1300 | – | – | – |
| COc1ccc(Cl)c(F)c1C1CC1CN (single isomer, unassigned; (-)) [(−)-Example 29, (−)-(2-(3-chloro-2-fluoro-6-methoxyphenyl)cyclopropyl)methanamine] | – | (93%) % 5-HT | – | (86%) % 5-HT | – | (64%) % 5-HT | 68 | – | – | 3.8 | 165 |
| CCOc1ccc(Cl)c(F)c1C1CC1CN (single isomer, unassigned; (-)) [(−)-Example 30, (−)-(2-(3-Chloro-6-ethoxy-2-fluorophenyl)cyclopropyl)methanamine] | 97 | (90%) % 5-HT | – | (31%) % 5-HT | 7420 | (51%) % 5-HT | – | 819 | – | – | – |
| C=CCOc1ccc(Cl)c(F)c1C1CC1CN (single isomer, unassigned; (-)) [(−)-Example 32, (−)-(2-(6-(Allyloxy)-3-chloro-2-fluorophenyl)cyclopropyl)methanamine] | 165 | (87%) % 5-HT | 1080 | (16%) % 5-HT | – | (5%) % 5-HT | – | – | – | – | – |
| COc1cc(Cl)c(Cl)cc1C1CC1CN (single isomer, unassigned; (-)) [(−)-Example 33, (−)-(2-(4,5-Dichloro-2-methoxyphenyl)cyclopropyl)methanamine] | – | (89%) % 5-HT | – | (75%) % 5-HT | – | (16%) % 5-HT | 84 | – | – | 14 | 696 |
| NCC1CC1c1cc(Cl)c(Cl)cc1OCCF (single isomer, unassigned; (-)) [(−)-Example 34, (−)-(2-(4,5-Dichloro-2-(2-fluoroethoxy)phenyl)cyclopropyl)methanamine] | 435 | (75%) % 5-HT | – | (4%) % 5-HT | – | (12%) % 5-HT | – | – | – | – | – |
| COc1ccc(Cl)c(Cl)c1C1CC1CN (single isomer, unassigned; (-)) [(−)-Example 36, (−)-(2-(2,3-Dichloro-6-methoxyphenyl)cyclopropyl)methanamine] | – | (104%) % 5-HT | – | (88%) % 5-HT | – | (62%) % 5-HT | 38 | – | – | 0.95 | 51 |
| CCOc1ccc(Cl)c(Cl)c1C1CC1CN (single isomer, unassigned; (-)) [(−)-Example 37, (−)-(2-(2,3-Dichloro-6-ethoxyphenyl)cyclopropyl)methanamine] | 30 | (104%) % 5-HT | – | (12%) % 5-HT | 6830 | (53%) % 5-HT | – | 625 | – | – | – |
| C=CCOc1ccc(Cl)c(Cl)c1C1CC1CN (single isomer, unassigned; (-)) [(−)-Example 39] | – | (93%) % 5-HT | – | (32%) % 5-HT | – | (99%) % 5-HT | 426 | – | – | 108 | 3960 |
| CCOc1cc(F)c(F)cc1C1CC1CN (single isomer, unassigned; (-)) [(−)-Example 41, (−)-(2-(2-Ethoxy-4,5-difluorophenyl)cyclopropyl)methanamine] | 33 | (103%) % 5-HT | – | (52%) % 5-HT | 299 | (35%) % 5-HT | – | 778 | – | – | – |
| COc1ccc(F)c(F)c1C1CC1CN (single isomer, unassigned; (-)) [(−)-Example 45, (−)-(2-(2,3-Difluoro-6-methoxyphenyl)cyclopropyl)methanamine] | – | (108%) % 5-HT | – | (72%) % 5-HT | – | (62%) % 5-HT | 461 | – | – | 16 | 462 |
| CCOc1ccc(F)c(F)c1C1CC1CN (single isomer, unassigned; (-)) [(−)-Example 46, (−)-(2-(6-Ethoxy-2,3-difluorophenyl)cyclopropyl)methanamine] | 83 | (99%) % 5-HT | – | (18%) % 5-HT | 4270 | (30%) % 5-HT | – | 2150 | – | – | – |
